# Results published in ChEMBL document CHEMBL5385963, “Enhanced inhibitory activity of compounds containing purine scaffolds compared to protein kinase CK2α considering crystalline water” (RSC Med Chem, 2024).
# pIC50: −log10 of the molar value.
# Target: Casein kinase II subunit alpha (Homo sapiens, UniProt P68400)
# Assay: Inhibition of N-terminal GST-fusion protein tagged full length human CK2alpha1 (1 to 391 residues) expressed in baculovirus expression system co-expressing human His-tagged CK2beta using CK2tide as substrate incubated for 1 hrs in presence of ATP by off-chip mobility shift assay
# Casein kinase II subunit alpha, sequence (P68400 whole entry, the tested form may be a part): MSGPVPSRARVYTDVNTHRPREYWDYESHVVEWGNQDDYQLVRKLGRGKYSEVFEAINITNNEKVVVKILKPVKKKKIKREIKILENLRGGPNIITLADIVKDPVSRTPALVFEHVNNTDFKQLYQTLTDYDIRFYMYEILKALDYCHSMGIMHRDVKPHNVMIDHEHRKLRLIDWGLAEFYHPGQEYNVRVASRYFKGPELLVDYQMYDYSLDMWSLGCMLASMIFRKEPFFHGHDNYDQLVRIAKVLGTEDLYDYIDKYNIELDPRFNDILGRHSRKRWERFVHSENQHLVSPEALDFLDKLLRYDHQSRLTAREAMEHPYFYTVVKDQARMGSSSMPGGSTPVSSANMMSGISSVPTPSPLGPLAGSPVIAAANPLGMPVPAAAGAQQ
row,pIC50,SMILES
1,5.03,COc1ccc(-n2c(=O)[nH]c3c(C(N)=O)nc(-c4ccc(C(=O)O)cc4)nc32)cc1
2,6.00,NC(=O)c1nc(-c2cccc(C(=O)O)c2)nc2c1[nH]c(=O)n2-c1ccccc1
3,< 4.52,NC(=O)c1nc(-c2ccc(C(=O)O)cc2)nc2c1[nH]c(=O)n2-c1ccc([N+](=O)[O-])cc1
4,4.82,NC(=O)c1nc(CCC(=O)O)nc2c1[nH]c(=O)n2-c1ccccc1
5,4.74,COc1cccc(-n2c(=O)[nH]c3c(C(N)=O)nc(-c4ccc(C(=O)O)cc4)nc32)c1
6,5.27,NC(=O)c1nc(-c2cccc(C(=O)O)c2)nc2c1[nH]c(=O)n2-c1ccc(Cl)cc1
7,6.00,NC(=O)c1nc(/C=C/C(=O)O)nc2c1[nH]c(=O)n2-c1ccccc1
8,5.72,COc1cccc(-n2c(=O)[nH]c3c(C(N)=O)nc(-c4cccc(C(=O)O)c4)nc32)c1
9,< 4.52,NC(=O)c1nc(CC(=O)O)nc2c1[nH]c(=O)n2-c1ccccc1
10,6.42,NC(=O)c1nc(-c2cccc(C(=O)O)c2)nc2c1[nH]c(=O)n2-c1ccc([N+](=O)[O-])cc1
11,< 4.52,NC(=O)c1nc(-c2ccc(C(=O)O)cc2)nc2c1[nH]c(=O)n2-c1ccc(F)cc1
12,6.74,NC(=O)c1nc(-c2cccc(C(=O)O)c2)nc2c1[nH]c(=O)n2-c1ccc(F)cc1
13,< 4.52,NC(=O)c1nc(C(=O)O)nc2c1[nH]c(=O)n2-c1ccccc1
14,< 4.52,NC(=O)c1nc(CCCC(=O)O)nc2c1[nH]c(=O)n2-c1ccccc1
15,6.21,Cc1ccc(-n2c(=O)[nH]c3c(C(N)=O)nc(-c4cccc(C(=O)O)c4)nc32)cc1
16,< 4.52,NC(=O)c1nc(-c2ccc(C(=O)O)cc2)nc2c1[nH]c(=O)n2-c1ccc(Cl)cc1
17,6.40,N#Cc1ccc(-n2c(=O)[nH]c3c(C(N)=O)nc(-c4cccc(C(=O)O)c4)nc32)cc1
18,5.59,COc1ccc(-n2c(=O)[nH]c3c(C(N)=O)nc(-c4cccc(C(=O)O)c4)nc32)cc1
19,4.85,NC(=O)c1nc(-c2ccc(C(=O)O)cc2)nc2c1[nH]c(=O)n2-c1ccccc1
20,5.37,CN(C)c1ccc(-n2c(=O)[nH]c3c(C(N)=O)nc(-c4ccc(C(=O)O)cc4)nc32)cc1
21,4.96,Cc1ccc(-n2c(=O)[nH]c3c(C(N)=O)nc(-c4ccc(C(=O)O)cc4)nc32)cc1
22,< 4.52,N#Cc1ccc(-n2c(=O)[nH]c3c(C(N)=O)nc(-c4ccc(C(=O)O)cc4)nc32)cc1
